For this assay, the target named is T1, CCR2 (Homo sapiens, UniProt P41597).
T1 construct: Membranes were prepared from THP-1 cells; endogenous in cells; host or cells: THP-1 cells (membrane preparation)
T1 sequence (P41597 1-360 isoform P41597-2): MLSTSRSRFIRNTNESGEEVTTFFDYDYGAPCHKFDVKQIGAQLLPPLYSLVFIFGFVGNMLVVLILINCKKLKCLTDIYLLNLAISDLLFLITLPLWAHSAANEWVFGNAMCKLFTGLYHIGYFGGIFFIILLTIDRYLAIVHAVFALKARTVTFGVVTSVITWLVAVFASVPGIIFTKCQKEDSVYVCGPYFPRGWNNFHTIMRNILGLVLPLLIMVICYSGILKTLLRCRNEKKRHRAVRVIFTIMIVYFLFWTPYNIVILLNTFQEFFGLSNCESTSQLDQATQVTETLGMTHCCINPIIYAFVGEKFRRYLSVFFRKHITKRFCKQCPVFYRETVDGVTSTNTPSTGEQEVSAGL
The assay is described as follows: CCR2 receptor membrane binding assay ([125I]MCP-1, THP-1 cell membranes, SPA beads). The settings on record: for remaining activity at 10 µM: @ 10 μM test compound, THP-1 membranes, read-out: CCR2 % ctrl @ 10 μM; for Ki: dissociation constant hKi, [125I]MCP-1 binding to THP-1 membranes. In outline: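 hKi was derived by iterative law-of-mass-action fitting of scintillation counts read at 8 h. Compound (1% DMSO final) competed with ca. 25000 cpm [125I]MCP-1 for THP-1 membranes bound to WGA-PVT beads. Buffer: 25 mM HEPES pH 7.2, 5 mM MgCl2, 0.5 mM CaCl2, 0.2% BSA.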

Broadly, the Ki is a dissociation constant, usually derived from enzyme kinetics or from competition with a known ligand.

On to `Cc1nc(NCc2ccc(C(C)(C)C)cc2)c(C)c(C(=O)N2CCC(N3CCC(S(=O)(=O)N(C)C)CC3)CC2)n1` [Example 207], for which the remaining activity at 10 µM amounted to 35% and the affinity corresponds to a Ki of 1180 nM. The matching figures for `Cc1c(NCc2ccc(C(C)(C)C)cc2)ncnc1C(=O)N1CCC(N2CCC(c3ccccc3)C2)CC1` (stereo not drawn) [Example 210]: 0% and 83 nM.

`Cc1c(NCCc2ccc(Cl)c(Cl)c2)ncnc1C(=O)N1CCC(N2CCC(O)C2)CC1` (stereo not drawn) [Example 241]: the remaining activity at 10 µM is 21% and the Ki was found to be 522 nM. The matching figures for `Cc1c(NCCc2cccc(Cl)c2)ncnc1C(=O)N1CCC(N2CCC(O)CC2)CC1` [Example 122]: 23% and 415 nM. In the case of `Cc1ccc(COc2ncnc(C(=O)N3CCC(N4CCC(N(C)S(C)(=O)=O)CC4)CC3)c2C)cc1F` [Example 294], the remaining activity at 10 µM worked out at 16% and the Ki came to 230 nM. As for `CO[C@@H]1COCC[C@H]1NC1CCN(C(=O)c2ncnc(NCc3ccc(C(C)(C)C)cc3)c2C)CC1` [Example 228gn], the Ki came to 333 nM.

For `Cc1ccc([C@H]2CC[C@H](CNc3ncnc(C(=O)N4CCC(N5CCC(N(C)S(C)(=O)=O)CC5)CC4)c3C)O2)cc1` [Example 159gb], the affinity corresponds to a Ki of 39 nM. `COc1nc(OCC2CCCC(c3ccccc3)C2)c(C)c(C(=O)N2CCC(N3CCC(N(C)S(C)(=O)=O)CC3)CC2)n1` (stereo not drawn) [Example 302] gave a Ki of 32 nM. Take `Cc1c(NCc2ccc(F)c(Cl)c2)ncnc1C(=O)N1CCC(N2CCCCC2)CC1` [Example 128]: the remaining activity at 10 µM was determined as 26% and affinity was put at a Ki of 445 nM. The matching figures for `CNC(=O)[C@@H]1CCN(C2CCN(C(=O)c3ncnc(NCc4ccc(Cl)c(F)c4)c3C)CC2)C1` [Example 78]: 28% and 740 nM. The matching figures for `CCS(=O)(=O)N(C)C1CCN(C2CCN(C(=O)c3ncnc(NC[C@@H]4C[C@H]4c4ccccc4)c3C)CC2)CC1` [Example 147]: 8% and 40 nM. As to `Cc1cccc([C@H]2CC[C@H](CNc3ncnc(C(=O)N4CCC(N5CCC(N(C)S(C)(=O)=O)CC5)CC4)c3C)O2)c1` [Example 159ia], the Ki turned out to be 17 nM. Turning to `Cc1c(NCc2ccc(Cl)c(F)c2)ncnc1C(=O)N1CCC(N2CCC(NS(C)(=O)=O)CC2)CC1` [Example 76], the remaining activity at 10 µM was 12% and the affinity, expressed as Ki, was 132 nM. The matching figures for `Cc1ccc(CNc2ncnc(C(=O)N3CCC(N4CCC(O)CC4)CC3)c2C)cc1F` [Example 120]: 30% and 499 nM. In turn, `Cc1c(NCC2Cc3cc(Cl)ccc3O2)ncnc1C(=O)N1CCC(N2CCC(N(C)S(C)(=O)=O)CC2)CC1` (stereo not drawn) [Example 159rb] returned a Ki of 54 nM. Still for that read-out and setting: to `Cc1c(NCc2ccc(C(C)(C)C)cc2)ncnc1C(=O)N1CCC(N2CCc3ncc(C(F)(F)F)cc3C2)CC1` [Example 228gg] belongs 1030 nM; to `CO[C@@H]1COCC[C@@H]1NC1CCN(C(=O)c2ncnc(NCc3ccc(C(C)(C)C)cc3)c2C)CC1` [Example 228ga], 23 nM. On to `COCCN(C)C1CCN(C(=O)c2ncnc(NCc3ccc(Cl)c(Cl)c3)c2C)CC1` [Example 181], for which the remaining activity at 10 µM worked out at 58% and the inhibition constant Ki was found to be 3610 nM. The matching figures for `Cc1c(NCc2ccc(Cl)c(C(F)(F)F)c2)ncnc1C(=O)N1CCC(N2CCCCC2)CC1` [Example 142]: 8% and 529 nM. The matching figures for `Cc1c(NCCc2ccc(Cl)c(Cl)c2)ncnc1C(=O)N1CCC(N2CCC[C@@H](O)C2)CC1` [Example 231]: 15% and 215 nM.

`CO[C@@H]1CN(C2CCN(C(=O)c3ncnc(NCc4ccc(Cl)c(Cl)c4)c3C)CC2)CC[C@H]1N(C)S(C)(=O)=O` [Example 227]: the remaining activity at 10 µM stood at 22% and the affinity, expressed as Ki, was 333 nM.

`O=C(c1ncnc(NCc2cccc(-c3ccccc3)c2)c1Br)N1CCC(N2CCC(O)CC2)CC1` [Example 278]: the remaining activity at 10 µM is 32% and the Ki was 1080 nM. Consider `Cc1c(NCc2ccc(Cl)c(Cl)c2)ncnc1C(=O)N1CCC(N2CCC(NC(N)=O)CC2)CC1` [Example 187], for which the remaining activity at 10 µM turned out to be 15% and the affinity, expressed as Ki, was 256 nM.

Regarding `Cc1nc(NC[C@@H]2CC[C@H](c3ccc(C(F)(F)F)cc3)O2)c(C)c(C(=O)N2CCC(N3CCC(N(C)S(C)(=O)=O)CC3)CC2)n1` [Example 159ka], the affinity corresponds to a Ki of 19 nM. This counts as double-digit nanomolar. Consider `Cc1c(NCc2ccc(Cl)c(Cl)c2)ncnc1C(=O)N1CCC(N2CCC(NS(C)(=O)=O)CC2)CC1` [Example 72], for which the remaining activity at 10 µM amounted to 7% and the Ki was 81 nM. With `Cc1nc(NCC2CCC(c3ccc(C(F)(F)F)cc3)O2)c(C)c(C(=O)N2CCC(N3CCC(N(C)S(C)(=O)=O)CC3)CC2)n1` (stereo not drawn) [Example 159ib], the affinity, expressed as Ki, was 15 nM. The same measure, in the same setting: the figure for `Cc1c(NC[C@H]2CC[C@H](c3cccc(C(F)(F)F)c3)O2)ncnc1C(=O)N1CCC(N2CCC(N(C)S(C)(=O)=O)CC2)CC1` [Example 159ha] is 27 nM. Turning to `Cc1c(NCC2CCc3ccccc3C2)ncnc1C(=O)N1CCC(N2CCC(N(C)S(C)(=O)=O)CC2)CC1` (stereo not drawn) [Example 159pb], the Ki was 10 nM. On the same count and under the same terms, the figure for `Cc1c(NCC2CN(c3ccccc3)CCO2)ncnc1C(=O)N1CCC(N2CCC(N(C)S(C)(=O)=O)CC2)CC1` (stereo not drawn) [Example 159s] is 1310 nM. As to `Cc1c(Cc2ccc(C(C)(C)C)cc2)ncnc1C(=O)N1CCC(N2CCC(N(C)S(C)(=O)=O)CC2)CC1` [Example 268], the remaining activity at 10 µM was determined as 5% and the Ki worked out at 119 nM. With `Cc1nc(NC[C@H]2CC[C@H](c3ccc(Cl)cc3)O2)c(C)c(C(=O)N2CCC(N3CCC(N(C)S(C)(=O)=O)CC3)CC2)n1` [Example 159ua], the Ki came to 23 nM. As to `Cc1c(NCCc2cccc(C(F)(F)F)c2)ncnc1C(=O)N1CCC(N2CCC(O)CC2)CC1` [Example 11], the remaining activity at 10 µM worked out at 38% and the affinity, expressed as Ki, was 1710 nM. The matching figures for `Cc1c(NCc2ccc(C(C)(C)C)cc2)ncnc1C(=O)N1CCC(N2CCC(NS(C)(=O)=O)CC2)CC1` [Example 69]: 7% and 63 nM.

Consider `Cc1c(NCc2ccc(C(C)(C)C)cc2)ncnc1C(=O)N1CCC(N[C@@H]2CCCN(S(C)(=O)=O)C2)CC1` [Example 228gd], for which the affinity corresponds to a Ki of 1090 nM. That is a single-digit micromolar value. Turning to `Cc1c(NCc2ccc(C(C)(C)C)cc2)ncnc1C(=O)N1CCC(N2CCC(c3ccccc3)CC2)CC1` [Example 225], the remaining activity at 10 µM worked out at 0% and the affinity corresponds to a Ki of 21 nM. The matching figures for `Cc1c(NCc2ccc(C(F)(F)F)c(Cl)c2)ncnc1C(=O)N1CCC(N2CCCCC2)CC1` [Example 133]: 15% and 205 nM. For the compound `Cc1ccc(C2CCCC(CNc3ncnc(C(=O)N4CCC(N5CCC(N(C)S(C)(=O)=O)CC5)CC4)c3C)C2)cc1` (stereo not drawn) [Example 159za], the Ki stood at 6 nM. `COC1CCN(C2CCN(C(=O)c3ncnc(NCc4ccc(C)c(Cl)c4)c3C)CC2)CC1` [Example 98]: the remaining activity at 10 µM was 2% and the Ki was found to be 214 nM. The matching figures for `Cc1c(NCc2ccc(C(F)(F)F)cc2F)ncnc1C(=O)N1CCC(N2CCC(O)CC2)CC1` [Example 21]: 51% and 2660 nM.
